# From US10508104B2, “6-hydroxy-5-(phenyl/heteroarylsulfonyl)pyrimidin-4(1H)-one as APJ agonists” (Bristol-Myers Squibb Company, priority 2016, dated 2019)
# Molecular target: human APJ receptor (Homo sapiens (Human), UniProt P35414)
# Experiment: Intracellular cAMP accumulation assay (APJ hcAMP, HTRF)
# Type: cell-based
# Details: HEK293 cells stably expressing human APJ receptor; inhibition of forskolin-mediated cAMP production; read-out: Human APJ cAMP EC50 Potency range
# How it was run: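 HEK293 cells stably expressing human APJ, 5,000 per well, incubated 30 min at rt with compound, […] and 2 μM forskolin. cAMP measured by HTRF against a cAMP standard curve as inhibition of forskolin-driven production. EC50 from variable-slope sigmoidal fit.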
# Chain of human APJ receptor (P35414 whole entry): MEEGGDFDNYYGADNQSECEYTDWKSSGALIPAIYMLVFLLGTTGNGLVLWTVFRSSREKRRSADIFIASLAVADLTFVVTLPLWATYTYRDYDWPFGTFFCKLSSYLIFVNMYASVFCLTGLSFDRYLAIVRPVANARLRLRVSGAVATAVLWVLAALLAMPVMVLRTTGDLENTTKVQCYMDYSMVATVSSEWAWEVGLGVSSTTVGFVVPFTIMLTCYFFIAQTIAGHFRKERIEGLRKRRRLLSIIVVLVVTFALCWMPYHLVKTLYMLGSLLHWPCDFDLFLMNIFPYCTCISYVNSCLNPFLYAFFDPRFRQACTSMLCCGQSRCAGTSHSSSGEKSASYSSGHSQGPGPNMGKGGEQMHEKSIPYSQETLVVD
row,EC50 [nM],SMILES
1,100 to 300,"COc1cccc(OC)c1-n1c(-c2ccc(F)cc2)nc(=O)c(S(=O)(=O)c2ccc(Br)cc2)c1O [Example 269, 5-((4-Bromophenyl)sulfonyl)-1-(2,6-dimethoxyphenyl)-2-(4-fluorophenyl)-6-hydroxypyrimidin-4(1H)-one]"
2,0.01 to 10,"COc1cccc(OC)c1-n1c(-c2ccc(F)cc2)nc(=O)c(S(=O)(=O)c2ccc(-c3cccnc3C)cc2)c1O [Example 271, 1-(2,6-Dimethoxyphenyl)-2-(4-fluorophenyl)-6-hydroxy-5-((4-(2-methylpyridin-3-yl)phenyl)sulfonyl)pyrimidin-4(1H)-one]"
3,0.01 to 10,"COc1cccc(OC)c1-n1c(-c2ccc(F)cc2)nc(=O)c(S(=O)(=O)c2ccc(-n3cc(Cl)ccc3=O)cc2)c1O [Example 275, 5-((4-(5-Chloro-2-oxopyridin-1 (2H)-yl)phenyl)sulfonyl)-1-(2,6-dimethoxyphenyl)-2-(4-fluorophenyl)-6-hydroxypyrimidin-4(1H)-one]"
4,10 to 100,"COc1cccc(OC)c1-n1c(-c2ccc(F)cc2)nc(=O)c(S(=O)(=O)c2ccc(C3CC3)cc2)c1O [Example 278, 5-((4-Cyclopropylphenyl)sulfonyl)-1-(2,6-dimethoxyphenyl)-2-(4-fluorophenyl)-6-hydroxypyrimidin-4(1H)-one]"
5,10 to 100,"CC[C@@H](c1ccccc1)n1c(C2CCCC2)nc(=O)c(S(=O)(=O)c2ccc(Br)cc2)c1O [Example 279, (S)-5-((4-Bromophenyl)sulfonyl)-2-cyclopentyl-6-hydroxy-1-(1-phenylpropyl)pyrimidin-4(1H)-one]"

# Same assay, conditions: human APJ, cAMP accumulation; read-out: Human APJ cAMP EC50 Potency range
row,SMILES,EC50 [nM]
1,"COc1cccc(OC)c1-n1c(-c2cncc(C)c2)nc(=O)c(S(=O)(=O)c2ccc(Br)cc2)c1O [Example 270, 5-(4-bromobenzenesulfonyl)-1-(2,6-dimethoxyphenyl)-6-hydroxy-2-(5-methylpyridin-3-yl)-1,4-dihydropyrimidin-4-one]",10 to 100
2,"COc1cccc(OC)c1-n1c(-c2cncc(C)c2)nc(=O)c(S(=O)(=O)c2ccc(-c3cccnc3C)cc2)c1O [Example 272, 1-(2,6-dimethoxyphenyl)-6-hydroxy-2-(5-methylpyridin-3-yl)-5-[4-(2-methylpyridin-3-yl)benzenesulfonyl]-1,4-dihydropyrimidin-4-one]",0.01 to 10
3,COc1cccc(OC)c1-n1c(-c2ccc(F)cc2)nc(=O)c(S(=O)(=O)c2ccc(-c3ccncc3C)cc2)c1O [Example 273],0.01 to 10
4,"COc1cccc(OC)c1-n1c(-c2cncc(C)c2)nc(=O)c(S(=O)(=O)c2ccc(-c3ccnc(F)c3C)cc2)c1O [Example 274, 1-(2,6-dimethoxyphenyl)-5-[4-(2-fluoro-3-methylpyridin-4-yl)benzenesulfonyl]-6-hydroxy-2-(5-methylpyridin-3-yl)-1,4-dihydropyrimidin-4-one]",0.01 to 10
5,"COc1cccc(OC)c1-n1c(-c2cncc(C)c2)nc(=O)c(S(=O)(=O)c2ccc(-n3cc(Cl)ccc3=O)cc2)c1O [Example 276, 5-[4-(5-chloro-2-oxo-1,2-dihydropyridin-1-yl)benzenesulfonyl]-1-(2,6-dimethoxyphenyl)-6-hydroxy-2-(5-methylpyridin-3-yl)-1,4-dihydropyrimidin-4-one]",0.01 to 10
6,"COc1cccc(OC)c1-n1c(-c2cncc(C)c2)nc(=O)c(S(=O)(=O)c2ccc(C3CC3)cc2)c1O [Example 277, 5-(4-cyclopropylbenzene-sulfonyl)-1-(2,6-dimethoxyphenyl)-6-hydroxy-2-(5-methylpyridin-3-yl)-1,4-dihydropyrimidin-4-one]",0.01 to 10
7,"COC[C@@H](c1ccccc1)n1c(COC(C)C)nc(=O)c(S(=O)(=O)c2ccc(Br)c(F)c2)c1O [Example 294, 5-(4-bromo-3-fluorobenzenesulfonyl)-6-hydroxy-1-[(1R)-2-methoxy-1-phenylethyl]-2-[(propan-2-yloxy)methyl]-1,4-dihydropyrimidin-4-one]",0.01 to 10
8,"COC[C@@H](c1ccccc1)n1c(COC(C)C)nc(=O)c(S(=O)(=O)c2ccc(Br)cc2)c1O [Example 295, 5-(4-bromobenzenesulfonyl)-6-hydroxy-1-[(1R)-2-methoxy-1-phenylethyl]-2-[(propan-2-yloxy)methyl]-1,4-dihydropyrimidin-4-one]",10 to 100

# Further lines, results first:
row,EC50 [nM],SMILES
1,0.01 to 10,"CCCCc1nc(=O)c(S(=O)(=O)c2ccc(-c3cccnc3C)cc2)c(O)n1[C@@H](CC)c1ccc(C#N)cc1 [Example 266, 4-[(1S)-1-{2-butyl-6-hydroxy-5-[4-(2-methylpyridin-3-yl)benzenesulfonyl]-4-oxo-1,4-dihydropyrimidin-1-yl}propyl]benzonitrile]"
2,0.01 to 10,"CCCCc1nc(=O)c(S(=O)(=O)c2ccc(-c3ccc(F)nc3C)cc2)c(O)n1[C@@H](CC)c1ccc(C#N)cc1 [Example 267, 4-[(1S)-1-{2-butyl-5-[4-(6-fluoro-2-methylpyridin-3-yl)benzenesulfonyl]-6-hydroxy-4-oxo-1,4-dihydropyrimidin-1-yl}propyl]benzonitrile]"
3,0.01 to 10,"CCCCc1nc(=O)c(S(=O)(=O)c2ccc(-c3ccnc(F)c3C)cc2)c(O)n1[C@@H](CC)c1ccc(C#N)cc1 [Example 268, 4-[(1S)-1-{2-butyl-5-[4-(2-fluoro-3-methylpyridin-4-yl)benzenesulfonyl]-6-hydroxy-4-oxo-1,4-dihydropyrimidin-1-yl}propyl]benzonitrile]"
4,0.01 to 10,"CC[C@@H](c1ccccc1)n1c(C2CCCC2)nc(=O)c(S(=O)(=O)c2ccc(-c3ccc(F)nc3)cc2)c1O [Example 280, 2-cyclopentyl-5-[4-(6-fluoropyridin-3-yl)benzenesulfonyl]-6-hydroxy-1-[(1S)-1-phenylpropyl]-1,4-dihydropyrimidin-4-one]"
5,0.01 to 10,"CC[C@@H](c1ccccc1)n1c(C2CCCC2)nc(=O)c(S(=O)(=O)c2ccc(-c3cncc(C)c3)cc2)c1O [Example 281, 2-cyclopentyl-6-hydroxy-5-[4-(5-methylpyridin-3-yl)benzenesulfonyl]-1-[(1S)-1-phenylpropyl]-1,4-dihydropyrimidin-4-one]"
6,0.01 to 10,"CC[C@@H](c1ccccc1)n1c(C2CCCC2)nc(=O)c(S(=O)(=O)c2ccc(-c3ccncc3C)cc2)c1O [Example 282, 2-cyclopentyl-6-hydroxy-5-[4-(3-methylpyridin-4-yl)benzenesulfonyl]-1-[(1S)-1-phenylpropyl] 1,4-dihydropyrimidin-4-one]"
7,0.01 to 10,"CC[C@@H](c1ccccc1)n1c(C2CCCC2)nc(=O)c(S(=O)(=O)c2ccc(-c3cncc(F)c3)cc2)c1O [Example 283, 2-cyclopentyl-5-[4-(5-fluoropyridin-3-yl)benzenesulfonyl]-6-hydroxy-1-[(1S)-1-phenylpropyl]-1,4-dihydropyrimidin-4-one]"
8,0.01 to 10,"CCCCc1nc(=O)c(S(=O)(=O)c2ccc(Br)cc2)c(O)n1[C@@H](CC)c1ccccc1 [Example 284, 5-(4-bromobenzenesulfonyl)-2-butyl-6-hydroxy-1-[(1S)-1-phenylpropyl]-1,4-dihydropyrimidin-4-one]"
9,100 to 300,"CCOCc1nc(=O)c(S(=O)(=O)c2ccc(Br)cc2)c(O)n1[C@@H](CC)c1ccccc1 [Example 285, 5-(4-bromobenzenesulfonyl)-2-(ethoxymethyl)-6-hydroxy-1-[(1S)-1-phenylpropyl]-1,4-dihydropyrimidin-4-one]"
10,100 to 300,"CC[C@@H](c1ccccc1)n1c(COC(C)C)nc(=O)c(S(=O)(=O)c2ccc(Br)cc2)c1O [Example 286, 5-(4-bromobenzenesulfonyl)-6-hydroxy-1-[(1S)-1-phenylpropyl]-2-[(propan-2-yloxy)methyl]-1,4-dihydropyrimidin-4-one]"
11,0.01 to 10,"CCCCc1nc(=O)c(S(=O)(=O)c2ccc(-n3ccccc3=O)cc2)c(O)n1[C@@H](CC)c1ccccc1 [Example 287, 2-butyl-6-hydroxy-5-[4-(2-oxo-1,2-dihydropyridin-1-yl)benzenesulfonyl]-1-[(1S)-1-phenylpropyl]-1,4-dihydropyrimidin-4-one]"
12,0.01 to 10,"CCCCc1nc(=O)c(S(=O)(=O)c2ccc(-n3cc(Cl)ccc3=O)cc2)c(O)n1[C@@H](COC)c1ccccc1 [Example 288, 2-butyl-5-[4-(5-chloro-2-oxo-1,2-dihydropyridin-1-yl)benzenesulfonyl]-6-hydroxy-1-[(1R)-2-methoxy-1-phenylethyl]-1,4-dihydropyrimidin-4-one]"
13,0.01 to 10,"CCCCc1nc(=O)c(S(=O)(=O)c2ccc(-c3ccc(F)nc3)cc2)c(O)n1[C@@H](CC)c1ccccc1 [Example 289, 2-butyl-5-[4-(6-fluoropyridin-3-yl)benzenesulfonyl]-6-hydroxy-1-[(1S)-1-phenylpropyl]-1,4-dihydropyrimidin-4-one]"
14,0.01 to 10,"CCCCc1nc(=O)c(S(=O)(=O)c2ccc(-c3cncc(F)c3)cc2)c(O)n1[C@@H](CC)c1ccccc1 [Example 290, 2-butyl-5-[4-(5-fluoropyridin-3-yl)benzenesulfonyl]-6-hydroxy-1-[(1S)-1-phenylpropyl]-1,4-dihydropyrimidin-4-one]"
15,0.01 to 10,"CCCCc1nc(=O)c(S(=O)(=O)c2ccc(-c3ccncc3C)cc2)c(O)n1[C@@H](CC)c1ccccc1 [Example 291, 2-butyl-6-hydroxy-5-[4-(3-methylpyridin-4-yl)benzenesulfonyl]-1-[(1S)-1-phenylpropyl]-1,4-dihydropyrimidin-4-one]"
16,10 to 100,"CCCCc1nc(=O)c(S(=O)(=O)c2ccc(-c3cnc(C)nc3)cc2)c(O)n1[C@@H](CC)c1ccccc1 [Example 292, 2-butyl-6-hydroxy-5-[4-(2-methylpyrimidin-5-yl)benzenesulfonyl]-1-[(1S)-1-phenylpropyl]-1,4-dihydropyrimidin-4-one]"
17,0.01 to 10,"CCCCc1nc(=O)c(S(=O)(=O)c2ccc(-c3cncc(C)c3)cc2)c(O)n1[C@@H](CC)c1ccccc1 [Example 293, 2-butyl-6-hydroxy-5-[4-(5-methylpyridin-3-yl)benzenesulfonyl]-1-[(1S)-1-phenylpropyl]-1,4-dihydropyrimidin-4-one]"
